From BindingDB's records for doi:10.1021/cb900232a (Stanford University, 2010)

Key:
Assay in all cases: Enzyme kinetic assay
[1] = biological target: T1, Caspase-3 (Mus musculus, UniProt P70677); settings: pH 7.4; 25 °C
T1 sequence (P70677 whole entry): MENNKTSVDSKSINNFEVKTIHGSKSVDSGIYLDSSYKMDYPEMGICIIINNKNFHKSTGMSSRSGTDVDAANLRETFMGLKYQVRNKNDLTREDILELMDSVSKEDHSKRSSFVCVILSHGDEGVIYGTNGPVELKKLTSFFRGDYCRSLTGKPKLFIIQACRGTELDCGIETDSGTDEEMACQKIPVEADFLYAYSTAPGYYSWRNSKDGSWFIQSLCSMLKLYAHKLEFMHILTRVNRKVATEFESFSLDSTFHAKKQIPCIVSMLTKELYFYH
Method: (§1) IC50 measurements and enzyme kinetics assays were performed on a Spectramax M5 fluorescent plate reader (Molecular Devices).

[2] = biological target: T2, Legumain (Mus musculus, UniProt O89017); settings: pH 5.8; 25 °C
T2 sequence (O89017 whole entry): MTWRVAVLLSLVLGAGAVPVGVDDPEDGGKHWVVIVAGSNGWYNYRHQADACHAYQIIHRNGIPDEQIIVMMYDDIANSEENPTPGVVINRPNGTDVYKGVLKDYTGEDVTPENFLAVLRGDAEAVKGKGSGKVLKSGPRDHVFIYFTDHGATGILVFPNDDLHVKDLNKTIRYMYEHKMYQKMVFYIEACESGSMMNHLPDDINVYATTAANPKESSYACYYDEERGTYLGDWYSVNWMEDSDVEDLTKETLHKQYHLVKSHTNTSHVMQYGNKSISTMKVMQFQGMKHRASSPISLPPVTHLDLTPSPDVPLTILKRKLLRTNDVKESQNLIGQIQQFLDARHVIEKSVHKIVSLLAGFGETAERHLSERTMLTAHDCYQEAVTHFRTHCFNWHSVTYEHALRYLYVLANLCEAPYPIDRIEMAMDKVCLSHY
Method: as §1

[3] = biological target: T3, Procathepsin L (Mus musculus, UniProt P06797); settings: pH 6.25; 25 °C
T3 sequence (P06797 whole entry): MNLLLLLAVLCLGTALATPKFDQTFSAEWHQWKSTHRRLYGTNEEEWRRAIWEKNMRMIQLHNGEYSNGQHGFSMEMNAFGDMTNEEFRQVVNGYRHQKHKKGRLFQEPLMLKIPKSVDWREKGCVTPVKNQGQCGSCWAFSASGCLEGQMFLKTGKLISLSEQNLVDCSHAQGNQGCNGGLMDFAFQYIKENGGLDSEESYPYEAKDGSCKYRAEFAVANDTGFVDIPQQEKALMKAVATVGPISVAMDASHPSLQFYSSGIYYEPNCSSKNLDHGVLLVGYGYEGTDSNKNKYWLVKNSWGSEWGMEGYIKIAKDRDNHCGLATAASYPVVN
Method: as §1

[4] = biological target: Cathepsin B (Mus musculus, UniProt P10605); settings: pH 6.25; 25 °C
Cathepsin B, sequence (P10605 whole entry): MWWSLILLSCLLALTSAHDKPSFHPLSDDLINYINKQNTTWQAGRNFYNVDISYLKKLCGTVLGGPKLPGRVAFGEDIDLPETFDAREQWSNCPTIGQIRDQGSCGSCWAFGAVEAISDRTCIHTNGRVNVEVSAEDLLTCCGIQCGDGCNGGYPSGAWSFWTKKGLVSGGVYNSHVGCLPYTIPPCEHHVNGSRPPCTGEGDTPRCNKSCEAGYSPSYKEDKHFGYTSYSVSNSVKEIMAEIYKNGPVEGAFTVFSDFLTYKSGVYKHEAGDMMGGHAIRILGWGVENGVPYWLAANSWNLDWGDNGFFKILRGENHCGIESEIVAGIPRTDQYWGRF
Method: as §1

Row | IC50 [1] | IC50 [2] | IC50 [3] | IC50 [4] | SMILES
1 | 890 µM | 0.0115 µM | 220 µM | 390 µM | CCOC(=O)[C@H]1O[C@@H]1C(=O)N(CC(N)=O)NC(=O)[C@@H]1CCCN1C(C)=O [LI-1]
2 |  |  | 2.98 µM | 0.78 µM | CCOC(=O)[C@H]1O[C@@H]1C(=O)N[C@H](C(=O)NCCc1ccc(O)cc1)C(C)CC (stereo partly specified) [CID644294]
